This note sets out measurements from US20250326771A1, “PIPERAZINE DERIVATIVES USEFUL IN HIV THERAPY” (VIIV HEALTHCARE COMPANY, priority 2022, published 2025).

The subject of experiment [1] is Jurkat HIV-luciferase clones. Briefly: Jurkat latency reversal assay. The format is cell-based. The settings on record: Homo sapiens, 48 h; Jurkat latency reversal assay potency; read-out: Jurkat pEC50 (converted). Here is the method:
Jurkat HIV-luciferase clones were maintained in RPMI medium 1640 (Gibco by Life Technologies) containing 10% (vol/vol) fetal bovine serum (SAFC/Sigma-Aldrich) and 25 units/mL penicillin, 25 units/mL streptomycin (Gibco by Life Technologies), and were split 1:4 every 3 to 4 days to maintain a cell density of ˜0.3 to 1 million cells/mL. The Jurkat clones were maintained with the addition of 500 nM EFV in the medium. Three Jurkat cell clones (C16, 115, and N6), each harboring one or two integrated HIV proviruses expressing the luciferase reporter gene, were added at equal amounts for a total of 5,000 cells per well to 384-well plates containing compound titrations. Dose-response testing was performed on compounds dissolved in dimethyl sulfoxide (DMSO; Fisher Scientific, Merelbeke, Belgium) dispensed in duplicate serial 3-fold, 14-point titrations using a D300e Digital Droplet Dispenser (Hewlett-Packard) to give final assay concentrations of 10 μM to […] in 50 μL of medium at 0.5% DMSO (vol/vol) final concentration. Cells and compound were incubated at 37° C. for 48 hours, unless otherwise indicated, followed by the addition of 20 μL of Steady-Glo® Luciferase (Promega). Luminescence resulting from the induction of the virally expressed luciferase was measured using an EnVision 2102 Multilabel Plate Reader (Perkin Elmer). Dose-response relationships were analyzed with GraphPad PRISM 6 using a four-parameter logistic regression model to calculate the concentration of compound that gives half-maximal response (EC50) and the maximal percent activation compared to the vehicle control.

The target of another experiment is cIAP1-BIR3 (Homo sapiens (Human), UniProt Q13490). Nature of the experiment: BIR binding assay (FRET competition), cIAP1 BIR3. Here is the method: (§1) The BIR domain binding assays are FRET based competition assays that utilize His-tagged versions of each of the BIR2 and BIR3 domains from cIAP1, cIAP2, and XIAP (each domain assayed separately) each at a custom optimal concentration and a probe, 200 nM SMAC/DIABLO peptide […] labelled with AlexaFluor647 (part #crb 1110326h, Discovery Peptides). The assay is conducted in 50 mM HEPES, […], 1 mM CHAPS, 5% Glycerol, 1 mM DTT, in dI water with a final pH of 7.4 and final volume of 20 uL. Final protein domain concentrations are: 50 nM cIAP1-BIR3 (Part #APT-11-370 Reaction Biology), 100 nM XIAP-BIR3 (Part #APT-11-351 Reaction Biology), 200 nM XIAP-BIR2 (Part #APT-11-470 Reaction Biology), 325 nM cIAP2-BIR2 (Part #APT-11-489 Reaction Biology), 50 nM cIAP2-BIR3 (Part #APT-11-372 Reaction Biology), 325 nM cIAP1-BIR2 (Part #APT-11-487 Reaction Biology). Compounds were plated using a HP Tecan D300 printer in a final total volume of 202 nl and DMSO concentration normalized across the 15-point, 3-fold dilution series. Peptide and probe were prepared at 2× relative to the concentrations above in binding buffer, 10 uL added to the prepared compound plates, and incubated for 60 minutes. LANCE Eu-W1024 (part #AD0401 Perkin Elmer #, vendor) was prepared at 2× concentration in binding buffer for final concentration of 2 nM, 10 uL added to each well, and plates incubated for 30 minutes. Plates were read on an ENVISION multifunction plate reader with […] laser excitation to obtain the 615 nm/665 nm emission ratio as indicative of probe:protein proximity. Data was analyzed using GraphPad PRISM and curves fit using log(inhibitor) vs. response—Variable slope (four […] method to obtain IC50 and pIC50 values.
Chain of cIAP1-BIR3 (Q13490 253-363): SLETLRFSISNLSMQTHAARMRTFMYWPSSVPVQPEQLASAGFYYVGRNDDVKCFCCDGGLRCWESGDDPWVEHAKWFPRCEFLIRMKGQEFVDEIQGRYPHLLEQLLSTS

Another experiment concerns the target cIAP2-BIR3 (Homo sapiens (Human), UniProt Q13489). Nature of the experiment: BIR binding assay (FRET competition), cIAP2 BIR3. Here is the method:
as §1

The target in another experiment is XIAP-BIR3 (Homo sapiens (Human), UniProt P98170). Nature of the experiment: BIR binding assay (FRET competition), XIAP BIR3. On the procedure:
as §1

Chain of XIAP-BIR3 (P98170 241-356): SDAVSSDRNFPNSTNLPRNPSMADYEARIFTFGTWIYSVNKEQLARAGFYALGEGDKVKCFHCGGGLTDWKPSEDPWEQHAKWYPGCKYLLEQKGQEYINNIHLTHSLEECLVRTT
Chain of cIAP2-BIR3 (Q13489 238-349): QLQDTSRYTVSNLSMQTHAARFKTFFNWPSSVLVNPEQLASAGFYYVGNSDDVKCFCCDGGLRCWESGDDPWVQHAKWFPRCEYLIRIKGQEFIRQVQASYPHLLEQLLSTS

Usually IC50 stands for the midpoint of a concentration-inhibition curve. Low values mean greater potency, high ones weaker potency. With `C[C@@H]1CN(CC(=O)N2CC(C)(C)c3[nH]c(=O)c(Cc4ccc(F)cc4)cc32)[C@@H](CN2CCO[C@H](COc3ccc(-c4ccc(OC[C@@H]5CN(C[C@H]6CN[C@H](C)CN6CC(=O)N6CC(C)(C)c7[nH]c(=O)c(Cc8ccc(F)cc8)cc76)CCO5)cc4)cc3)C2)CN1` [Example 50, 1,1′-(2,2′-((3R,3′R,6R,6′R)-(((2S,2'S)—(([1,1′-biphenyl]-4,4′-diylbis(oxy))bis(methylene))bis(morpholine-2,4-diyl))bis(methylene))bis(3-methylpiperazine-6,1-diyl))bis(acetyl))bis(6-(4-fluorobenzyl)-3,3-dimethyl-1,2,3,4-tetrahydro-5H-pyrrolo[3,2-b]pyridin-5-one)], the EC50 in experiment [1] is 0.00049 to 0.0126 µM. Also, the half-inhibitory concentration (IC50) on cIAP1-BIR3, on cIAP2-BIR3 and on XIAP-BIR3 was 0.00138 to 0.00794 µM in each case.
`C[C@@H]1CN(CC(=O)N2CC(C)(C)c3[nH]c(=O)c(Cc4ccc(F)cc4)cc32)[C@@H](CN2CCO[C@H](COc3ccc(S(=O)(=O)c4ccc(OC[C@@H]5CN(C[C@H]6CN[C@H](C)CN6CC(=O)N6CC(C)(C)c7[nH]c(=O)c(Cc8ccc(F)cc8)cc76)CCO5)cc4)cc3)C2)CN1` [Example 57, 1,1′-(2,2′-((3R,3′R,6R,6′R)-(((2S,2'S)-(((sulfonylbis(4,1-phenylene))bis(oxy))bis(methylene))bis(morpholine-2,4-diyl))bis(methylene))bis(3-methylpiperazine-6,1-diyl))bis(acetyl))bis(6-(4-fluorobenzyl)-3,3-dimethyl-1,2,3,4-tetrahydro-5H-pyrrolo[3,2-b]pyridin-5-one)]: the EC50 in experiment [1] was 0.0126 to 0.0631 µM. Moreover, the half-inhibitory concentration (IC50) at cIAP1-BIR3 fell in the range of 0.0316 to 0.501 µM; on cIAP2-BIR3, 0.0158 to 0.0316 µM; on XIAP-BIR3 it was 0.0316 to 0.501 µM.
For the molecule `C[C@@H]1CN(CC(=O)N2CC(C)(C)c3[nH]c(=O)c(Cc4ccc(F)cc4)cc32)[C@@H](CN2CCO[C@H](COc3ccc(CCc4ccc(OC[C@@H]5CN(C[C@H]6CN[C@H](C)CN6CC(=O)N6CC(C)(C)c7[nH]c(=O)c(Cc8ccc(F)cc8)cc76)CCO5)cc4)cc3)C2)CN1` [Example 58, 1,1′-(2,2′-((3R,3′R,6R,6′R)-(((2S,2'S)-(((ethane-1,2-diylbis(4,1-phenylene))bis(oxy))bis(methylene))bis(morpholine-2,4-diyl))bis(methylene))bis(3-methylpiperazine-6,1-diyl))bis(acetyl))bis(6-(4-fluorobenzyl)-3,3-dimethyl-1,2,3,4-tetrahydro-5H-pyrrolo[3,2-b]pyridin-5-one)], the EC50 in experiment [1] is 0.0126 to 0.0631 µM. Also, the IC50 on cIAP1-BIR3 fell in the range of 0.0158 to 0.0316 µM; at cIAP2-BIR3, 0.00794 to 0.0158 µM; on XIAP-BIR3 it was 0.0158 to 0.0316 µM.
As for `C[C@@H]1CN(CC(=O)N2CC(C)(C)c3[nH]c(=O)c(Cc4ccc(F)cc4)cc32)[C@@H](CN2CCO[C@H](COc3ccc(C(C)(C)c4ccc(C(C)(C)c5ccc(OC[C@@H]6CN(C[C@H]7CN[C@H](C)CN7CC(=O)N7CC(C)(C)c8[nH]c(=O)c(Cc9ccc(F)cc9)cc87)CCO6)cc5)cc4)cc3)C2)CN1` [Example 62, 1,1′-(2,2′-((3R,3′R,6R,6′R)-(((2S,2'S)-((((1,4-phenylenebis(propane-2,2-diyl))bis(4,1-phenylene))bis(oxy))bis(methylene))bis(morpholine-2,4-diyl))bis(methylene))bis(3-methylpiperazine-6,1-diyl))bis(acetyl))bis(6-(4-fluorobenzyl)-3,3-dimethyl-1,2,3,4-tetrahydro-5H-pyrrolo[3,2-b]pyridin-5-one)], the EC50 in experiment [1] is 0.0126 to 0.0631 µM. For the same molecule, the IC50 at cIAP1-BIR3, on cIAP2-BIR3 and at XIAP-BIR3 was 0.0316 to 0.501 µM each time.
